{"source": "patent US6200591A", "about": "“Method of administration of sildenafil to produce instantaneous response for the treatment of erectile dysfunction” (priority 1998, dated 2001)", "key": {"[1]": {"conditions": "intracavernosal, cited from earlier work; for Results of i.c. injection in erectile dysfunction: either alone or in combination"}, "[2]": {"conditions": "sublingual, cited from earlier work"}, "[3]": {"assay": "Solubility of the citrate salt in water", "assay_type": "physicochemical"}, "[4]": {"assay": "Absorption of solubilized sildenafil from the nasal cavity of rats (blood concentration after intranasal vs intravenous administration)", "assay_type": "in vivo", "conditions": "for Concentration of sildenafil in the blood of rats, intranasal, mean: n = 5; for Concentration of sildenafil in the blood of rats, intravenous, mean: n = 3", "method": "These experiments determine the bioavailability of sildenafil, or derivatives thereof, after nasal administration and compare it to that after intravenous administration. In particular, the present experiment determined the absorption of sildenafil into the blood of rats following intranasal administration of a formulation in which the sildenafil was solubilized by the addition of mesylic acid (see below).\nThe nasal absorption of sildenafil, or derivatives thereof, were measured using an in vivo technique in rats. Rats were fasted overnight prior to experimentation. Surgical procedures were performed under equithesin anesthesia (3 ml/kg, i.p.). An incision was made in the neck of each rat, and the trachea cannulated with polyethylene tubing (PF-260). A closed end tube was inserted through the esophagus to the posterior part of the nasal cavity to prevent drug from entering the esophagus. The nasopalatine passage was closed with an adhesive agent to prevent drainage of the drug from the nasal cavity to the mouth.\nThe jugular vein and femoral artery were cannulated with polyethylene tubing for intravenous drug administration and intra-arterial blood sampling.\nSolutions of sildenafil hydrochloride (2 and 4 mg/rat/50 μl) were prepared in water and administered through the right nostril using a microsyringe. For intravenous administration, the same dose of the drug was injected into the jugular vein (1 ml/kg body weight). […]\nBioavailability of nasally administered drug was calculated by comparing the plasma drug concentrations between nasal and intravenous delivery routes and expressed as a percentage of the intravenous bioavailability.\nThe solution instilled into the nasal cavities of the rats in this experiment had the following composition:\nAdjust the pH to 2.8 to 3.0 with 0.05M NaOH\nAt various times following the intranasal and intravenous administration of sildenafil to rats, the concentrations of sildenafil in blood were determined using the following analytical method:\nOne hundred microliters of rat plasma was treated with 25 microliters of 1M monochloroacetic acid to denature the plasma proteins and release free sildenafil. Seventy-five microliters of acetonitrile was then added to precipitate the proteins. This solution was centifuged for 5 minutes at 5,000 g. The clear supernatant was injected onto the HPLC column.\nThe HPLC system consisted of the following:\nThe concentrations are expressed as areas under the HPLC curves×10^-4."}, "[5]": {"conditions": "currently used oral route; cited from earlier work"}, "[6]": {"assay": "Peak plasma concentration time / response in humans, current oral tablet formulation vs intranasal route", "assay_type": "in vivo", "conditions": "indicated by rat results"}, "[7]": {"conditions": "cited from earlier work"}}, "note": "Entries after “also recorded” stand apart in the source; their conditions may differ. Counter-ions that a name gives are not always drawn. Ends that are not written are not given here.", "data": [{"molecule": "COc1ccc(Cc2nccc3cc(OC)c(OC)cc23)cc1OC", "note": "[papaverine]", "values": [{"measurement": "Results of i.c. injection in erectile dysfunction", "setting": "[1]", "result": "good results"}]}, {"molecule": "CN1CCc2cccc3c2[C@H]1Cc1ccc(O)c(O)c1-3", "note": "[apomorphine]", "values": [{"measurement": "Effect on erectile function", "setting": "[2]", "result": "restore normal erectile function"}, {"measurement": "Men returned to sexual potency", "setting": "[2]; men whose dysfunction had psychological origins", "result": "about 70%"}]}, {"molecule": "CCCCC[C@H](O)/C=C/[C@H]1[C@H](O)CC(=O)[C@@H]1CCCCCCC(=O)O", "note": "[PGE-1]", "values": [{"measurement": "Results of i.c. injection in erectile dysfunction", "setting": "[1]", "result": "good results"}]}, {"molecule": "Cc1ccc(N(CC2=NCCN2)c2cccc(O)c2)cc1", "note": "[phentolamine]", "values": [{"measurement": "Results of i.c. injection in erectile dysfunction", "setting": "[1]", "result": "good results"}]}, {"molecule": "vasoactive intestinal polypeptide (VIP): vasoactive intestinal polypeptide (HSDAVFTDNYTRLRKQMAVKKYLNSILN; ends and bridges not checked; UniProt P01282 125-152, looked up)", "values": [{"measurement": "Activity i.c.", "setting": "[1]", "result": "active i.c."}]}, {"molecule": "CCCc1nn(C)c2c(=O)[nH]c(-c3cc(S(=O)(=O)N4CCN(C)CC4)ccc3OCC)nc12", "note": "[sildenafil citrate]", "values": [{"measurement": "solubility", "setting": "[3]", "result": 3500, "unit": "µg/mL"}]}, {"molecule": "CC(COc1ccccc1)N(CCCl)Cc1ccccc1", "note": "(stereo not drawn) [phenoxybenzamine]", "values": [{"measurement": "Results of i.c. injection in erectile dysfunction", "setting": "[1]", "result": "good results"}]}, {"molecule": "CCCc1nn(C)c2c(=O)[nH]c(-c3cc(S(=O)(=O)N4CCN(C)CC4)ccc3OCC)nc12", "note": "[Sildenafil, 5-[2-ethoxy-5-(4-methyl-1-piperazinylsulphonyl)-phenyl]-1-methyl-3-n-propyl-1,6-dihydro-7H-pyrazolo[4,3-d]pyrimidin-7-one]", "values": [{"measurement": "Effectiveness of intranasal compared with intravenous administration", "setting": "[4]; intranasal vs intravenous", "result": "as effective as intravenous administration"}, {"measurement": "Absorption following intranasal administration", "setting": "[4]; intranasal, comparison of areas under blood concentration versus time curves with intravenous (FIG. 1)", "result": "complete and very rapid absorption; also recorded: rapidly and complete absorbed"}, {"measurement": "Concentration of sildenafil in the blood of rats, intranasal, mean", "setting": "[4]; intranasal", "result": "11.7 areas under the HPLC curves×10"}, {"measurement": "Concentration of sildenafil in the blood of rats, intranasal, mean", "setting": "[4]; intranasal, time 2 min", "result": "12.1 areas under the HPLC curves×10"}, {"measurement": "Concentration of sildenafil in the blood of rats, intranasal, mean", "setting": "[4]; intranasal, time 5 min", "result": "25.5 areas under the HPLC curves×10"}, {"measurement": "Concentration of sildenafil in the blood of rats, intranasal, mean", "setting": "[4]; intranasal, time 10 min", "result": "38.2 areas under the HPLC curves×10"}, {"measurement": "Concentration of sildenafil in the blood of rats, intranasal, mean", "setting": "[4]; intranasal, time 15 min", "result": "43.5 areas under the HPLC curves×10"}, {"measurement": "Concentration of sildenafil in the blood of rats, intranasal, mean", "setting": "[4]; intranasal, time 20 min", "result": "32.6 areas under the HPLC curves×10"}, {"measurement": "Concentration of sildenafil in the blood of rats, intranasal, mean", "setting": "[4]; intranasal, time 30 min", "result": "31.0 areas under the HPLC curves×10"}, {"measurement": "Concentration of sildenafil in the blood of rats, intranasal, mean", "setting": "[4]; intranasal, time 40 min", "result": "22.7 areas under the HPLC curves×10"}, {"measurement": "Concentration of sildenafil in the blood of rats, intranasal, mean", "setting": "[4]; intranasal, time 50 min", "result": "19.6 areas under the HPLC curves×10"}, {"measurement": "Concentration of sildenafil in the blood of rats, intravenous, mean", "setting": "[4]; time 0 min", "result": "188.8 areas under the HPLC curves×10"}, {"measurement": "Concentration of sildenafil in the blood of rats, intravenous, mean", "setting": "[4]; time 2 min", "result": "84.7 areas under the HPLC curves×10"}, {"measurement": "Concentration of sildenafil in the blood of rats, intravenous, mean", "setting": "[4]; time 5 min", "result": "47.7 areas under the HPLC curves×10"}, {"measurement": "Concentration of sildenafil in the blood of rats, intravenous, mean", "setting": "[4]; time 10 min", "result": "32.0 areas under the HPLC curves×10"}, {"measurement": "Concentration of sildenafil in the blood of rats, intravenous, mean", "setting": "[4]; time 15 min", "result": "19.5 areas under the HPLC curves×10"}, {"measurement": "Concentration of sildenafil in the blood of rats, intravenous, mean", "setting": "[4]; time 20 min", "result": "17.9 areas under the HPLC curves×10"}, {"measurement": "Concentration of sildenafil in the blood of rats, intravenous, mean", "setting": "[4]; time 30 min", "result": "16.0 areas under the HPLC curves×10"}, {"measurement": "Concentration of sildenafil in the blood of rats, intravenous, mean", "setting": "[4]; time 40 min", "result": "14.6 areas under the HPLC curves×10"}, {"measurement": "Concentration of sildenafil in the blood of rats, intravenous, mean", "setting": "[4]; time 50 min", "result": "7.6 areas under the HPLC curves×10"}, {"measurement": "Tmax", "setting": "[4]; rat, in vivo, rats, intranasal, approximately, read-out: Time of peak blood concentration", "result": "10 to 15", "unit": "min"}, {"measurement": "Time to response, oral route", "setting": "[5]", "result": "≥ 60", "unit": "min"}, {"measurement": "Response in humans, intranasal route vs current oral tablet", "setting": "[6]", "result": "much more rapid response"}]}, {"molecule": "O=[N+]([O-])OCC(CO[N+](=O)[O-])O[N+](=O)[O-]", "note": "[glyceryl trinitrate (GTN), glyceryl trinitrate]", "values": [{"measurement": "Effect of patches applied to the penis", "setting": "[7]", "result": "effective"}, {"measurement": "Side-effects of patches applied to the penis", "setting": "[7]", "result": "produces side-effects in both patient and partner"}]}]}
